Experiment [1] has as its target Human immunodeficiency virus type 1 protease (Human immunodeficiency virus 1, UniProt Q72874). Description: (§1) Inhibitory activity against HIV-1 protease.
For experiment [2], the target named is Human immunodeficiency virus type 1 protease (Human immunodeficiency virus 1) (UniProt Q72874). The following applies: 100 uM.
Description: Inhibitory activity against HIV-1 protease at 100 uM concentration
Experiment [3] has the same target. Described as §1. Conditions: concentration not given here.

From ChEMBL document CHEMBL1151034, “De novo design of nonpeptidic HIV-1 protease inhibitors: Incorporation of structural water” (Bioorg Med Chem Lett, 1994) come the findings set out here.

In experiment [1], `O=C1N(CC2CC2)[C@@H](Cc2ccccc2)C(O)[C@H](Cc2ccccc2)N1CC1CC1` showed an IC50 of 9 µM.

Consider `O=C1N(Cc2ccccc2)[C@@H](Cc2ccccc2)C(O)[C@H](Cc2ccccc2)N1Cc1ccccc1`, for which the IC50 in experiment [1] worked out at 89 µM. Compared with the last compound, the IC50 is about 9.9-fold higher.

As for `C=CCN1C(=O)N(CC=C)[C@@H](Cc2ccccc2)C(O)[C@@H]1Cc1ccccc1`, the midpoint of inhibition in experiment [1], the IC50, lay at 53 µM. Against the preceding compound, the IC50 is about 1.7-fold lower.

Regarding `O=C1N[C@@H](Cc2ccccc2)C(O)[C@H](Cc2ccccc2)N1`, the inhibition in experiment [2] came to 35%. This compound also registered an IC50 in experiment [1] of over 100 µM.

On to `O=C1N(Cc2ccc3ccccc3c2)[C@@H](Cc2ccccc2)C(O)[C@H](Cc2ccccc2)N1Cc1ccc2ccccc2c1`, for which the inhibition in experiment [3] turned out to be 6%.

For orientation: IC50 means the point on the concentration scale where inhibition reaches its midpoint. What is called inhibition is the drop in the measured response relative to a control, in per cent. High values mean strong suppression, low ones little suppression.
